Patent US12336536B2, “Method for controlling herbicide resistant or tolerant weeds” (BASF Agro B.V., priority 2015, dated 2025)

Key:
[1] = test system: blackgrass (ALOMY) biotypes; assay: Greenhouse test, control of resistant weed biotypes, post-emergence, blackgrass; type: in vivo, Alopecurus myosuroides; conditions: post-emergence, scale 0 to 100
Method: (§1) The herbicidal activity of herbicide A on resistant weed biotypes was tested in comparison with certain commercial herbicides by the following greenhouse experiments:
(§2) The culture containers used were plastic flowerpots containing loamy sand with approximately 3.0% of humus as the substrate. The seeds of the test plants were sown separately for each species. Six blackgrass (ALOMY) (10-103, 10-170, 09-591, 10-123, 11-215, 11-146) and six ryeg rass (LOLMU) (12-166, 12-143, 12-165, 12-307, 13-304, 13-313) biotypes with varying degrees of resistance towards a range of modes of action according to the HRAC (Herbicide Resistance Action Committee) classification on mode of action 2010 (see e.g http://www.hracglobal.com/pages/classificationofherbicidesiteofaction.aspx) were tested alongside two non-resistant biotypes (14-116 and 13-243), see Tables 1 and 2 below.
(§3) For the post-emergence treatment, the test plants were first grown to a height of 3 to 15 cm, depending on the plant habit, and only then treated with the active ingredients which had been suspended or emulsified in water. For this purpose, the test plants were either sown directly and grown in the same containers, or they were first grown separately as seedlings and transplanted into the test containers a few days prior to treatment.
(§4) Depending on the species, the plants were kept at 10-25° C. or 20-35° C. The test period extended over 2 to 4 weeks. During this time, the plants were tended, and their response to the individual treatments was evaluated.
(§5) The racemic mixture (±)-2-exo-(2-Methylbenzyloxy)-1-methyl-4-isopropyl-7-oxabicyclo[2.2.1]heptane was used as herbicide A and formulated as emulsifiable concentrates with an active ingredient concentration of 50 g/l, 100 g/l or 750 g/l respectively.
(§6) Flufenacet was used as a commercial concentrated solution formulation having an active ingredient concentration of 500 g/l (Cadou).
(§7) Imazamox was used as a water dispersible granule (70% WG).
(§8) Evaluation of the herbicidal activity was carried out using a scale from 0 to 100. 100 means complete destruction of at least the aerial moieties, and 0 means no damage, or normal course of growth. A good herbicidal activity is given at values of at least 70 and a very good herbicidal activity is given at values of at least 85.

[2] = test system: ryegrass (LOLMU) biotypes; assay: Greenhouse test, control of resistant weed biotypes, post-emergence, ryegrass; type: in vivo, Lolium multiflorum; conditions: post-emergence, scale 0 to 100
Method: as §1, §2, §3, §4, §5, §6, §7, §8

BRSNW = assay: Greenhouse test, solo and combination, post-emergence, 20 DAT; type: in vivo, Brassica napus
Method: (§9) The test plants have been seeded, separately for each species, in plastic containers in sandy loamy soil containing 5% of organic matter.
(§10) For the post-emergence treatment, the plants were first grown to the 2 leaf station (GS 12) and applied at GS 12-19 depending on the species. The herbicidal compositions were suspended or emulsified in water as distribution medium and sprayed using finely distributing nozzles.
(§11) The plants have been cultivated due to their individual requirements at 10-25° C. and 20-35° C. The plants were irrigated due to their necessity.
(§12) The racemic mixture (±)-2-exo-(2-Methylbenzyloxy)-1-methyl-4-isopropyl-7-oxabicyclo[2.2.1]heptane was used as herbicide A and formulated as emulsifiable concentrate having an active ingredient concentration of 750 g/l.
(§13) Cyhalofop-butyl (herbicide B.5) was used as an emulsifiable concentrate (EC) formulation having an active ingredient concentration of 200 g/l.
(§14) Metsulfuron-methyl (herbicide B.53) was used as a water soluble granule (SG) formulation having an active ingredient concentration of 20%.
(§15) Bispyribac-sodium (herbicide B.23) was used as a soluble concentrate (SL) formulation having an active ingredient concentration of 408 g/l.
(§16) Quizalofop-P-ethyl (herbicide B.217) was used as a suspension concentrate (SC) formulation having an active ingredient concentration of 106 g/l.
(§17) In the following experiments, the herbicidal activity for the individual herbicide compounds (solo and mixture applications) was assessed 20 days after treatment (DAT).
(§18) The evaluation for the damage on undesired weeds caused by the chemical compositions was carried out using a scale from 0 to 100%, compared to the untreated control plants. Here, 0 means no damage and 100 means complete destruction of the plants.
(§19) The plants used in the greenhouse experiments belonged to the following species:
(§20) E=X+Y−(X·Y/100) • where X=effect in percent using herbicide A at an application rate a; • Y=effect in percent using herbicide B at application rate b; • E=expected effect (in %) of herbicide A+herbicide B at application rates a+b.
(§21) The value E corresponds to the effect (plant damage or injury) which is to be expected if the activity of the individual compounds is additive. If the observed effect is higher than the value E calculated according to the Colby equation, a synergistic effect is present.
(§22) Tables 3 to 6 below relate the herbicidal activity, in greenhouse trials, of the individual actives and the combination applied at different rates and ratios, in post-emergence application at 20 days after treatment (DAT).

ALOMY = assay: as above; type: in vivo, Alopecurus myosuroides; conditions: solo application 1 g ai/ha
Method: as §9, §10, §11, §12, §13, §14, §15, §16, §17, §18, §19, §20, §21, §22

LOLRI = assay: as above; type: in vivo, Lolium rigidum; conditions: solo application 1 g ai/ha
Method: as §9, §10, §11, §12, §13, §14, §15, §16, §17, §18, §19, §20, §21, §22

MATIN = assay: as above; type: in vivo, Matricaria inodora
Method: as §9, §10, §11, §12, §13, §14, §15, §16, §17, §18, §19, §20, §21, §22

GALAP = assay: as above; type: in vivo, Galium aparine
Method: as §9, §10, §11, §12, §13, §14, §15, §16, §17, §18, §19, §20, §21, §22

PAPRH = assay: as above; type: in vivo, Papaver rhoeas
Method: as §9, §10, §11, §12, §13, §14, §15, §16, §17, §18, §19, §20, §21, §22

[3] = BT 09-591, resistant HRAC group A, B, K, 125 g ai/ha
[4] = BT 10-103, resistant HRAC group A, B, K, 125 g ai/ha
[5] = BT 10-123, resistant HRAC group A, B, C, 125 g ai/ha
[6] = BT 10-170, resistant HRAC group A, B, K, 125 g ai/ha
[7] = BT 11-146, resistant HRAC group K, 125 g ai/ha
[8] = BT 11-215, resistant HRAC group A, B, C, E, K, 125 g ai/ha
[9] = BT 14-116, Sensitive standard, 125 g ai/ha
[10] = BT 12-143, resistant HRAC group A, B, C, E, K, 125 g ai/ha
[11] = BT 12-165, resistant HRAC group A, B, E, K, 125 g ai/ha
[12] = BT 12-166, resistant HRAC group A, B, E, K, 125 g ai/ha
[13] = BT 12-307, resistant HRAC group B, F, K, O, 125 g ai/ha
[14] = BT 13-243, Sensitive standard, 125 g ai/ha
[15] = BT 13-304, resistant HRAC group A, B, E, K, 125 g ai/ha
[16] = BT 13-313, resistant HRAC group A, B, C, E, K, 125 g ai/ha

COCc1cnc(C2=NC(C)(C(C)C)C(=O)N2)c(C(=O)O)c1 (stereo not shown) [Imazamox, imazamox]
Herbicidal activity ([1]; BT 09-591, resistant HRAC group A, B, K, 62.5 g ai/ha): 20
Herbicidal activity [1, 3]: 50
Herbicidal activity ([1]; BT 10-103, resistant HRAC group A, B, K, 62.5 g ai/ha): 60
Herbicidal activity [1, 4]: 70
Herbicidal activity ([1]; BT 10-123, resistant HRAC group A, B, C, 62.5 g ai/ha): 60
Herbicidal activity [1, 5]: 70
Herbicidal activity ([1]; BT 10-170, resistant HRAC group A, B, K, 62.5 g ai/ha): 80
Herbicidal activity [1, 6]: 95
Herbicidal activity ([1]; BT 11-146, resistant HRAC group K, 62.5 g ai/ha): 75
Herbicidal activity [1, 7]: 75
Herbicidal activity ([1]; BT 11-215, resistant HRAC group A, B, C, E, K, 62.5 g ai/ha): 85
Herbicidal activity [1, 8]: 85
Herbicidal activity ([1]; BT 14-116, Sensitive standard, 62.5 g ai/ha): 95
Herbicidal activity [1, 9]: 95
Herbicidal activity ([2]; BT 12-143, resistant HRAC group A, B, C, E, K, 62.5 g ai/ha): 65
Herbicidal activity [2, 10]: 75
Herbicidal activity ([2]; BT 12-165, resistant HRAC group A, B, E, K, 62.5 g ai/ha): 70
Herbicidal activity [2, 11]: 85
Herbicidal activity ([2]; BT 12-166, resistant HRAC group A, B, E, K, 62.5 g ai/ha): 85
Herbicidal activity [2, 12]: 98
Herbicidal activity ([2]; BT 12-307, resistant HRAC group B, F, K, O, 62.5 g ai/ha): 80
Herbicidal activity [2, 13]: 85
Herbicidal activity ([2]; BT 13-243, Sensitive standard, 62.5 g ai/ha): 90
Herbicidal activity [2, 14]: 85
Herbicidal activity ([2]; BT 13-304, resistant HRAC group A, B, E, K, 62.5 g ai/ha): 90
Herbicidal activity [2, 15]: 85
Herbicidal activity ([2]; BT 13-313, resistant HRAC group A, B, C, E, K, 62.5 g ai/ha): 80
Herbicidal activity [2, 16]: 85

COC(=O)c1ccccc1S(=O)(=O)NC(=O)Nc1nc(C)nc(OC)n1 [metsulfuron-methyl]
Herbicidal activity (BRSNW; solo application 1 g ai/ha): 90%
Herbicidal activity (BRSNW; solo application 2 g ai/ha): 95%
Herbicidal activity (BRSNW; solo application 8 g ai/ha): 98%
Herbicidal activity (ALOMY): 0%
Herbicidal activity (LOLRI): 10%
Herbicidal activity (MATIN; solo application 1 g ai/ha): 90%
Herbicidal activity (MATIN; solo application 2 g ai/ha): 90%
Herbicidal activity (MATIN; solo application 4 g ai/ha): 85%
Herbicidal activity (MATIN; solo application 8 g ai/ha): 90%
Herbicidal activity (GALAP; solo application 4 g ai/ha): 30%
Herbicidal activity (GALAP; solo application 8 g ai/ha): 25%
Herbicidal activity (PAPRH; solo application 1 g ai/ha): 0%
Herbicidal activity (PAPRH; solo application 4 g ai/ha): 50%
Herbicidal activity (PAPRH; solo application 8 g ai/ha): 98%

CC(C)N(C(=O)COc1nnc(C(F)(F)F)s1)c1ccc(F)cc1 [Flufenacet, flufenacet]
Herbicidal activity [1, 3]: 80
Herbicidal activity ([1]; BT 09-591, resistant HRAC group A, B, K, 250 g ai/ha): 95
Herbicidal activity [1, 4]: 75
Herbicidal activity ([1]; BT 10-103, resistant HRAC group A, B, K, 250 g ai/ha): 90
Herbicidal activity [1, 5]: 80
Herbicidal activity ([1]; BT 10-123, resistant HRAC group A, B, C, 250 g ai/ha): 95
Herbicidal activity [1, 6]: 90
Herbicidal activity ([1]; BT 10-170, resistant HRAC group A, B, K, 250 g ai/ha): 95
Herbicidal activity [1, 7]: 70
Herbicidal activity ([1]; BT 11-146, resistant HRAC group K, 250 g ai/ha): 80
Herbicidal activity [1, 8]: 75
Herbicidal activity ([1]; BT 11-215, resistant HRAC group A, B, C, E, K, 250 g ai/ha): 95
Herbicidal activity [1, 9]: 98
Herbicidal activity ([1]; BT 14-116, Sensitive standard, 250 g ai/ha): 100
Herbicidal activity [2, 10]: 60
Herbicidal activity ([2]; BT 12-143, resistant HRAC group A, B, C, E, K, 250 g ai/ha): 60
Herbicidal activity [2, 11]: 60
Herbicidal activity ([2]; BT 12-165, resistant HRAC group A, B, E, K, 250 g ai/ha): 60
Herbicidal activity [2, 12]: 10
Herbicidal activity ([2]; BT 12-166, resistant HRAC group A, B, E, K, 250 g ai/ha): 60
Herbicidal activity [2, 13]: 15
Herbicidal activity ([2]; BT 12-307, resistant HRAC group B, F, K, O, 250 g ai/ha): 15
Herbicidal activity [2, 14]: 80
Herbicidal activity ([2]; BT 13-243, Sensitive standard, 250 g ai/ha): 95
Herbicidal activity [2, 15]: 75
Herbicidal activity ([2]; BT 13-304, resistant HRAC group A, B, E, K, 250 g ai/ha): 75
Herbicidal activity [2, 16]: 35
Herbicidal activity ([2]; BT 13-313, resistant HRAC group A, B, C, E, K, 250 g ai/ha): 50
